Where a name gives a salt, the structure may show the parent alone.
Key:
[1] = test system: Candida albicans; test: Phototoxicity against Candida albicans at 10 ug/disk in dark; type: functional; conditions: light or radiation study, read-out: IZ
[2] = test system: Bacillus subtilis; test: Phototoxicity against Bacillus subtilis at 10 ug/disk in dark; type: functional; conditions: light or radiation study, read-out: IZ
[3] = test system: Bacillus subtilis; test: Phototoxicity against Bacillus subtilis at 10 ug/disk after irradiation with W/m'2 UV light; type: functional; conditions: light or radiation study, read-out: IZ
[4] = test system: Enterococcus faecalis; test: Phototoxicity against Streptococcus faecalis at 10 ug/disk after irradiation with W/m'2 UV light; type: functional; conditions: light or radiation study, read-out: IZ
[5] = test system: Pseudomonas fluorescens; test: Phototoxicity against Pseudomonas fluorescens at 10 ug/disk after irradiation with W/m'2 UV light; type: functional; conditions: light or radiation study, read-out: IZ
[6] = test system: CHO; test: Genotoxicity in CHO cells assessed as chromosomal aberrations at 0.04 ppm after 60 mins in dark followed by 5 W/m'2 UV irradiation for 30 mins; type: toxicity, cell-based, Cricetulus griseus; conditions: chinese hamster, 0.5 h
[7] = test system: Escherichia coli; test: Phototoxicity against Escherichia coli at 10 ug/disk in dark; type: functional; conditions: light or radiation study, read-out: IZ
[8] = test system: Pseudomonas aeruginosa; test: Phototoxicity against Pseudomonas aeruginosa at 10 ug/disk in dark; type: functional; conditions: light or radiation study, read-out: IZ
[9] = test system: Staphylococcus aureus; test: Phototoxicity against Staphylococcus aureus at 10 ug/disk in dark; type: functional; conditions: light or radiation study, read-out: IZ
[10] = test system: Candida albicans; test: Phototoxicity against Candida albicans at 10 ug/disk after irradiation with W/m'2 UV light; type: functional; conditions: light or radiation study, read-out: IZ
[11] = test system: Escherichia coli; test: Phototoxicity against Escherichia coli at 10 ug/disk after irradiation with W/m'2 UV light; type: functional; conditions: light or radiation study, read-out: IZ
[12] = test system: Pseudomonas aeruginosa; test: Phototoxicity against Pseudomonas aeruginosa at 10 ug/disk after irradiation with W/m'2 UV light; type: functional; conditions: light or radiation study, read-out: IZ
[13] = test system: Staphylococcus aureus; test: Phototoxicity against Staphylococcus aureus at 10 ug/disk after irradiation with W/m'2 UV light; type: functional; conditions: light or radiation study, read-out: IZ
[14] = test system: Saccharomyces cerevisiae; test: Phototoxicity against Saccharomyces cerevisiae at 10 ug/disk in dark; type: functional; conditions: light or radiation study, read-out: IZ
[15] = test system: Enterococcus faecalis; test: Phototoxicity against Streptococcus faecalis at 10 ug/disk in dark; type: functional; conditions: light or radiation study, read-out: IZ
[16] = test system: CHO; test: Genotoxicity in CHO cells assessed as chromosomal aberrations at 0.02 ppm after 60 mins in dark followed by 5 W/m'2 UV irradiation for 30 mins; type: toxicity, cell-based, Cricetulus griseus; conditions: chinese hamster, 0.5 h
[17] = test system: Pseudomonas fluorescens; test: Phototoxicity against Pseudomonas fluorescens at 10 ug/disk in dark; type: functional; conditions: light or radiation study, read-out: IZ
[18] = test system: CHO; test: Genotoxicity in CHO cells assessed as chromosomal aberrations at 0.1 ppm after 60 mins in dark followed by 5 W/m'2 UV irradiation for 30 mins; type: toxicity, cell-based, Cricetulus griseus; conditions: chinese hamster, 0.5 h
[19] = test system: CHO; test: Genotoxicity in CHO cells assessed as chromosomal aberrations at 0.3 ppm after 90 mins in dark; type: toxicity, cell-based, Cricetulus griseus; conditions: chinese hamster, 1.5 h
[20] = test system: CHO; test: Genotoxicity in CHO cells assessed as mitotic inhibition at 0.2 ppm after 60 mins in dark followed by 5 W/m'2 UV irradiation for 30 mins; type: toxicity, cell-based, Cricetulus griseus; conditions: chinese hamster, 0.5 h
[21] = test system: Saccharomyces cerevisiae; test: Phototoxicity against Saccharomyces cerevisiae at 10 ug/disk after irradiation with W/m'2 UV light; type: functional; conditions: light or radiation study, read-out: IZ
[22] = test system: CHO; test: Genotoxicity against CHO cells after UV irradiation; type: toxicity, cell-based, Cricetulus griseus; conditions: chinese hamster
[23] = test system: CHO; test: Genotoxicity against CHO cells; type: toxicity, cell-based, Cricetulus griseus; conditions: chinese hamster
[24] = (§1) Genotoxicity in CHO cells assessed as mitotic inhibition at 0.62 ppm after 60 mins in dark followed by 5 W/m'2 UV irradiation for 30 mins; type: toxicity, cell-based, Cricetulus griseus; conditions: chinese hamster, CHO cells; read-out: Activity
[25] = test system: CHO; test: Genotoxicity in CHO cells assessed as chromosomal aberrations at 3.1 ppm after 60 mins in dark followed by 5 W/m'2 UV irradiation for 30 mins; type: toxicity, cell-based, Cricetulus griseus; conditions: chinese hamster, 0.5 h
[26] = test system: CHO; test: Genotoxicity in CHO cells assessed as chromosomal aberrations at 50 ppm after 90 mins in dark; type: toxicity, cell-based, Cricetulus griseus; conditions: chinese hamster, 1.5 h
[27] = test system: CHO; test: Genotoxicity in CHO cells assessed as chromosomal aberrations at 50 ppm after 60 mins in dark followed by 5 W/m'2 UV irradiation for 30 mins; type: toxicity, cell-based, Cricetulus griseus; conditions: chinese hamster
[28] = test system: CHO; test: Genotoxicity in CHO cells assessed as chromosomal aberrations at 0.4 ppm after 60 mins in dark followed by 5 W/m'2 UV irradiation for 30 mins; type: toxicity, cell-based, Cricetulus griseus; conditions: chinese hamster, 0.5 h
[29] = test system: CHO; test: Genotoxicity in CHO cells assessed as chromosomal aberrations at 25 ppm after 60 mins in dark followed by 5 W/m'2 UV irradiation for 30 mins; type: toxicity, cell-based, Cricetulus griseus; conditions: chinese hamster
[30] = test system: CHO; test: Genotoxicity in CHO cells assessed as chromosomal aberrations at 0.8 ppm after 60 mins in dark followed by 5 W/m'2 UV irradiation for 30 mins; type: toxicity, cell-based, Cricetulus griseus; conditions: chinese hamster, 0.5 h
[31] = test system: CHO; test: Genotoxicity in CHO cells assessed as chromosomal aberrations at 6.2 ppm after 60 mins in dark followed by 5 W/m'2 UV irradiation for 30 mins; type: toxicity, cell-based, Cricetulus griseus; conditions: chinese hamster, 0.5 h
[32] = test system: CHO; test: Genotoxicity in CHO cells assessed as chromosomal aberrations at 12.5 ppm after 60 mins in dark followed by 5 W/m'2 UV irradiation for 30 mins; type: toxicity, cell-based, Cricetulus griseus; conditions: chinese hamster, 0.5 h
[33] = test system: Saccharomyces cerevisiae; test: Phototoxicity against Saccharomyces cerevisiae at 100 ug/disk in dark; type: functional; conditions: light or radiation study, read-out: IZ
[34] = test system: Pseudomonas aeruginosa; test: Phototoxicity against Pseudomonas aeruginosa at 100 ug/disk after irradiation with W/m'2 UV light; type: functional; conditions: light or radiation study, read-out: IZ
[35] = test system: Escherichia coli; test: Phototoxicity against Escherichia coli at 100 ug/disk in dark; type: functional; conditions: light or radiation study, read-out: IZ
[36] = test system: Enterococcus faecalis; test: Phototoxicity against Streptococcus faecalis at 100 ug/disk in dark; type: functional; conditions: light or radiation study, read-out: IZ
[37] = test system: Pseudomonas fluorescens; test: Phototoxicity against Pseudomonas fluorescens at 100 ug/disk after irradiation with W/m'2 UV light; type: functional; conditions: light or radiation study, read-out: IZ
[38] = test system: Bacillus subtilis; test: Phototoxicity against Bacillus subtilis at 100 ug/disk after irradiation with W/m'2 UV light; type: functional; conditions: light or radiation study, read-out: IZ
[39] = test system: Candida albicans; test: Phototoxicity against Candida albicans at 100 ug/disk after irradiation with W/m'2 UV light; type: functional; conditions: light or radiation study, read-out: IZ
[40] = test system: Saccharomyces cerevisiae; test: Phototoxicity against Saccharomyces cerevisiae at 100 ug/disk after irradiation with W/m'2 UV light; type: functional; conditions: light or radiation study, read-out: IZ
[41] = test system: Bacillus subtilis; test: Phototoxicity against Bacillus subtilis at 100 ug/disk in dark; type: functional; conditions: light or radiation study, read-out: IZ
[42] = test system: Enterococcus faecalis; test: Phototoxicity against Streptococcus faecalis at 100 ug/disk after irradiation with W/m'2 UV light; type: functional; conditions: light or radiation study, read-out: IZ
[43] = test system: Pseudomonas fluorescens; test: Phototoxicity against Pseudomonas fluorescens at 100 ug/disk in dark; type: functional; conditions: light or radiation study, read-out: IZ
[44] = test system: Candida albicans; test: Phototoxicity against Candida albicans at 100 ug/disk in dark; type: functional; conditions: light or radiation study, read-out: IZ
[45] = test system: Pseudomonas aeruginosa; test: Phototoxicity against Pseudomonas aeruginosa at 100 ug/disk in dark; type: functional; conditions: light or radiation study, read-out: IZ
[46] = test system: Escherichia coli; test: Phototoxicity against Escherichia coli at 100 ug/disk after irradiation with W/m'2 UV light; type: functional; conditions: light or radiation study, read-out: IZ
[47] = test system: Staphylococcus aureus; test: Phototoxicity against Staphylococcus aureus at 100 ug/disk after irradiation with W/m'2 UV light; type: functional; conditions: light or radiation study, read-out: IZ
[48] = test system: Staphylococcus aureus; test: Phototoxicity against Staphylococcus aureus at 100 ug/disk in dark; type: functional; conditions: light or radiation study, read-out: IZ
[49] = test system: CHO; test: Genotoxicity in CHO cells assessed as mitotic inhibition at 1.25 ppm after 60 mins in dark followed by 5 W/m'2 UV irradiation for 30 mins; type: toxicity, cell-based, Cricetulus griseus; conditions: chinese hamster, 0.5 h
[50] = test system: CHO; test: as §1; type: toxicity, cell-based, Cricetulus griseus; conditions: chinese hamster, cho, 0.5 h

## COc1c2occc2cc2ccc(=O)oc12 [METHOXSALEN]
[1]
  zone of inhibition at 10 µg/disc: 0 mm
[2]
  zone of inhibition at 10 µg/disc: 0 mm
[3]
  zone of inhibition at 10 µg/disc: 14 mm
[4]
  zone of inhibition at 10 µg/disc: 14 mm
[5]
  zone of inhibition at 10 µg/disc: 0 mm
[6]
  Activity: 38.8%
[7]
  zone of inhibition at 10 µg/disc: 0 mm
[8]
  zone of inhibition at 10 µg/disc: 0 mm
[9]
  zone of inhibition at 10 µg/disc: 0 mm
[10]
  zone of inhibition at 10 µg/disc: 14 mm
[11]
  zone of inhibition at 10 µg/disc: 14 mm
[12]
  zone of inhibition at 10 µg/disc: 0 mm
[13]
  zone of inhibition at 10 µg/disc: 18 mm
[14]
  zone of inhibition at 10 µg/disc: 0 mm
[15]
  zone of inhibition at 10 µg/disc: 0 mm
[16]
  Activity: 7.1%
[17]
  zone of inhibition at 10 µg/disc: 0 mm
[18]
  Activity: 63.6%
[19]
  Activity: 0%
[20]
  Activity: Active
[21]
  zone of inhibition at 10 µg/disc: 19 mm

## CC[C@]1(O)C[C@@H]2CN(CCc3c([nH]c4ccccc34)[C@@](C(=O)OC)(c3cc4c(cc3OC)N(C)[C@H]3[C@@](O)(C(=O)OC)[C@H](OC(C)=O)[C@]5(CC)C=CCN6CC[C@]43[C@@H]65)C2)C1 [VINBLASTINE]
[22]
  Activity: Not Active
[23]
  Activity: Not Active

## c1ccc2c(c1)[nH]c1cnccc12 [NORHARMANE]
[24]
  inhibition at 0.5 h, 0.62 ppm: 0%

## COc1ccc2c(OC)c3ccoc3nc2c1OC [SKIMMIANINE]
[25]
  Activity: 45%
[26]
  Activity: 0%
[27]
  Activity: Toxic
[28]
  Activity: 3%
[29]
  Activity: 50%
[30]
  Activity: 10.9%
[31]
  Activity: 59.9%
[32]
  Activity: 61.9%

## O=C1C[C@@H]2OCC=C3CN4CC[C@]56c7ccccc7N1[C@H]5[C@H]2[C@H]3C[C@H]46 [STRYCHNINE SULFATE]
[33]
  zone of inhibition at 100 µg/disc: 0 mm
[34]
  zone of inhibition at 100 µg/disc: 0 mm
[35]
  zone of inhibition at 100 µg/disc: 0 mm
[36]
  zone of inhibition at 100 µg/disc: 0 mm
[37]
  zone of inhibition at 100 µg/disc: 0 mm
[38]
  zone of inhibition at 100 µg/disc: 0 mm
[39]
  zone of inhibition at 100 µg/disc: 0 mm
[40]
  zone of inhibition at 100 µg/disc: 0 mm
[41]
  zone of inhibition at 100 µg/disc: 0 mm
[42]
  zone of inhibition at 100 µg/disc: 0 mm
[43]
  zone of inhibition at 100 µg/disc: 0 mm
[44]
  zone of inhibition at 100 µg/disc: 0 mm
[45]
  zone of inhibition at 100 µg/disc: 0 mm
[46]
  zone of inhibition at 100 µg/disc: 0 mm
[47]
  zone of inhibition at 100 µg/disc: 0 mm
[48]
  zone of inhibition at 100 µg/disc: 0 mm

## COc1ccc2c3c([nH]c2c1)C(C)=NCC3 [HARMALINE]
[49]
  Activity: Active
[50]
  Activity: Active
